# From BindingDB's records for patent US20230399319 (Japan Tobacco, 2023)
# Target: NACHT, LRR and PYD domains-containing protein 3 (Homo sapiens, UniProt Q96P20)
# Test: Evaluation of NLRP3 Inflammasome Inhibitory Activity Assay
# Description: The NLRP3 inflammasome inhibitory activity of test compounds were evaluated CM the basis of the inhibitory activity of the IL-1β, production in THP1-Null cells (Product Number: thp-null, InvivoGen). […] A solution containing a test compound (20 μL/well) was added to test compound-setting wells. […] The supernatant of the culture was cryonically stored (set at −20° C.) until measurement of IL-1β.
# NACHT, LRR and PYD domains-containing protein 3, sequence (Q96P20 whole entry, the tested form may be a part): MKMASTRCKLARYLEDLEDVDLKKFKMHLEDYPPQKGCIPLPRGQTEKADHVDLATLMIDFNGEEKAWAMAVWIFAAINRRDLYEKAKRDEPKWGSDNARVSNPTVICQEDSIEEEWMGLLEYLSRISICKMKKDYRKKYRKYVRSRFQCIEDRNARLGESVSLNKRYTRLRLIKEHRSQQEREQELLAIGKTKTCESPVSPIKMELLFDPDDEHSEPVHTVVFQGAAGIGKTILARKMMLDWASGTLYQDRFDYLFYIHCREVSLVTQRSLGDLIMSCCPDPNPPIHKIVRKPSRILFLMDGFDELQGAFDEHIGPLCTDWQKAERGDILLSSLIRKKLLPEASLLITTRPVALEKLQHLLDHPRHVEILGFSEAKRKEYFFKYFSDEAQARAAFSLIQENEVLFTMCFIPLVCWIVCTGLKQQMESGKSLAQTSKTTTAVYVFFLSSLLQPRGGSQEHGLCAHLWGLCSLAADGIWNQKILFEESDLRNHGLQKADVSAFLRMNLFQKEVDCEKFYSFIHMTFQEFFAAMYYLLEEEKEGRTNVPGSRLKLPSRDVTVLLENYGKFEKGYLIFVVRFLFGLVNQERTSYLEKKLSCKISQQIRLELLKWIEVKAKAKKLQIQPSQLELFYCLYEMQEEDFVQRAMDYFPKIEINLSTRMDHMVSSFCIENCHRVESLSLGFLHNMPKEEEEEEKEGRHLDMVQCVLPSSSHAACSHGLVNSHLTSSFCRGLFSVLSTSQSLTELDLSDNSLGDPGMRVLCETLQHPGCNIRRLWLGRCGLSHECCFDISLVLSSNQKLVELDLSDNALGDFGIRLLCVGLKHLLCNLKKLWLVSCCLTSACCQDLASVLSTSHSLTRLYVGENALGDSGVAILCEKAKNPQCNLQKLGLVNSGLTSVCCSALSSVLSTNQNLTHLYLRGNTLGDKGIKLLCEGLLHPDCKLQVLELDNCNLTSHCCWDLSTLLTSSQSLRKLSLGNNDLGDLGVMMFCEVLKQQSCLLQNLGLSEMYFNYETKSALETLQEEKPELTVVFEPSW
row,Structure (SMILES),IC50 [nM]
1,"Cc1ccc(C)c(Nc2nc(C(=O)NS(=O)(=O)N3CCOC(COCC4CCC4)CC3)co2)c1 (stereo not drawn) [US20230399319, Example 2-342]",10
2,"Cc1ccc(C(F)(F)F)cc1Nc1nc(C(=O)NS(=O)(=O)N2[C@H](C)CCC[C@@H]2C)co1 [US20230399319, Example 2-053]",89
3,"CC(=O)NCCN(C)S(=O)(=O)NC(=O)c1coc(Nc2cc(C(F)(F)F)ccc2C)n1 [US20230399319, Example 2-162]",300
4,"Cc1ccc(C(F)(F)F)cc1Nc1nc(C(=O)NS(=O)(=O)N2CCC(C#N)CC2)co1 [US20230399319, Example 2-109]",38
5,"CCOC[C@@H]1OCCN(S(=O)(=O)NC(=O)c2coc(Nc3cc(C)c(F)cc3C)n2)C[C@H]1OC [US20230399319, Example 3-007]",820
6,"Cc1ccc(C(F)(F)F)cc1Nc1nc(C(=O)NS(=O)(=O)N2CCCC(N(C)C)CC2)co1 (stereo not drawn) [US20230399319, Example 2-173]",120
7,"Cc1cc(Nc2nc(C(=O)NS(=O)(=O)N3CCCOCC3)co2)c(C)cc1F [US20230399319, Example 2-339]",30
8,"Cc1ccc(C(F)(F)F)cc1Nc1nc(C(=O)NS(=O)(=O)N2CCCC2C)co1 (stereo not drawn) [US20230399319, Example 2-174]",55
9,"Cc1ccc(C(F)(F)F)cc1Nc1nc(C(=O)NS(=O)(=O)N2CCCC(c3ccccc3)C2)co1 (stereo not drawn) [US20230399319, Example 2-284]",1400
10,"Cc1ccc(C(F)(F)F)cc1Nc1nc(C(=O)NS(=O)(=O)N2CCCN(c3ncccn3)[C@H](C)C2)co1 [US20230399319, Example 2-313]",22
11,"COC[C@@H]1CCCN1S(=O)(=O)NC(=O)c1coc(Nc2cc(C)ccc2C)n1 [US20230399319, Example 2-303]",140
12,"Cc1ccc(C(F)(F)F)cc1Nc1nc(C(=O)NS(=O)(=O)N2CCC(F)(F)CC2)co1 [US20230399319, Example 2-023]",130
13,"COC1CCN(S(=O)(=O)NC(=O)c2coc(Nc3cc(C(F)(F)F)ccc3C)n2)C1 (stereo not drawn) [US20230399319, Example 2-199]",160
14,"Cc1cn(CC(F)(F)F)nc1Nc1nc(C(=O)NS(=O)(=O)N2CCCOCC2)co1 [US20230399319, Example 2-152]",6100
15,"Cc1ccc(C(F)(F)F)cc1Nc1nc(C(=O)NS(=O)(=O)N(C)CC#N)co1 [US20230399319, Example 2-108]",130
16,"Cc1ccc(C(F)(F)F)cc1Nc1nc(C(=O)NS(=O)(=O)N2CCN(c3ccccc3)CC2)co1 [US20230399319, Example 2-274]",180
17,"COCCC1(C#N)CCCN(S(=O)(=O)NC(=O)c2coc(Nc3cc(C(F)(F)F)ccc3C)n2)CC1 (stereo not drawn) [US20230399319, Example 2-250]",30
18,"COC1COCCN(S(=O)(=O)NC(=O)c2coc(Nc3cc(C(C)C)c(F)cc3C)n2)C1 (stereo not drawn) [US20230399319, Example 2-343]",16
19,"COCCCN(C)S(=O)(=O)NC(=O)c1coc(Nc2cc(C(F)(F)F)ccc2C)n1 [US20230399319, Example 2-235]",94
20,"Cc1ccc(C(F)(F)F)cc1Nc1nc(C(=O)NS(=O)(=O)N2CCCS(=O)(=O)CC2)co1 [US20230399319, Example 2-239]",170
21,"Cc1ccc(C(C)C)cc1Nc1nc(C(=O)NS(=O)(=O)N2CCOC(CN(C)C)CC2)co1 (stereo not drawn) [US20230399319, Example 2-341]",88

row,Structure (SMILES),IC50 [nM]
1,"Cc1cccc(C)c1Nc1nc(C(=O)NS(=O)(=O)N2CCCOCC2)co1 [US20230399319, Example 2-115]",1300
2,"Cc1ccc(C(F)(F)F)cc1Nc1nc(C(=O)NS(=O)(=O)N2CCC(C(F)(F)F)CC2)co1 [US20230399319, Example 2-024]",31
3,"Cc1ccc(C(F)(F)F)cc1Nc1nc(C(=O)NS(=O)(=O)N2CCC(C)C2)co1 (stereo not drawn) [US20230399319, Example 2-019]",70
4,"CCOC[C@H]1OCCN(S(=O)(=O)NC(=O)c2coc(Nc3cc(C)c(F)cc3C)n2)C[C@@H]1OC [US20230399319, Example 3-006]",30
5,"Cc1ccc(C(F)(F)F)cc1Nc1nc(C(=O)NS(=O)(=O)N2CCCC(=O)CC2)co1 [US20230399319, Example 2-149]",32
6,"Cc1ccc(C(C)C)cc1Nc1nc(C(=O)NS(=O)(=O)N(C)C)co1 [US20230399319, Example 2-040]",130
7,"CCCS(=O)(=O)C1CCCN(S(=O)(=O)NC(=O)c2coc(Nc3nc(C(F)(F)F)ccc3C(C)C)n2)CC1 (stereo not drawn) [US20230399319, Example 2-315]",85
8,"Cc1ccc(C(F)(F)F)cc1Nc1nc(C(=O)NS(=O)(=O)N2CCC[C@@H]2C(=O)N(C)C)co1 [US20230399319, Example 2-080]",930
9,"Cc1cc(F)c(C(C)C)cc1Nc1nc(C(=O)NS(=O)(=O)N2CCCOCC2)co1 [US20230399319, Example 2-336]",10
10,"CCC(=O)N(C)C1CCCN(S(=O)(=O)NC(=O)c2coc(Nc3cc(C(F)(F)F)ccc3C)n2)C1 (stereo not drawn) [US20230399319, Example 2-255]",210
11,"Cc1ccc(C(C)(C)C)cc1Nc1nc(C(=O)NS(=O)(=O)N2CCCOCC2)co1 [US20230399319, Example 2-112]",65
12,"Cc1ccc(C(F)(F)F)cc1Nc1nc(C(=O)NS(=O)(=O)N2CCOCC(n3cccn3)C2)co1 (stereo not drawn) [US20230399319, Example 2-304]",59
13,"Cc1ccc(C(C)CC#N)cc1Nc1nc(C(=O)NS(=O)(=O)N(C)C)co1 (stereo not drawn) [US20230399319, Example 2-096]",1800
14,"CCOCC1CCN(S(=O)(=O)NC(=O)c2coc(Nc3cc(C)c(F)cc3C)n2)CCO1 (stereo not drawn) [US20230399319, Example 2-340]",12
15,"Cc1ccc(C(F)(F)F)cc1Nc1nc(C(=O)NS(=O)(=O)N2CCCC(F)(F)CC2)co1 [US20230399319, Example 2-234]",50
16,"Cc1cn(C2CCC2)nc1Nc1nc(C(=O)NS(=O)(=O)N2CCCOCC2)co1 [US20230399319, Example 2-188]",790
17,"Cc1ccc(C(F)(F)F)cc1Nc1nc(C(=O)NS(=O)(=O)N(C)Cc2cnccn2)co1 [US20230399319, Example 2-236]",100
18,"COC[C@@H]1CCCN1S(=O)(=O)NC(=O)c1coc(Nc2cc(C)ccc2C(C)C)n1 [US20230399319, Example 2-322]",270
19,"Cc1cc(Nc2nc(C(=O)NS(=O)(=O)N3CCCOCC3)co2)c(C(C)C)cc1F [US20230399319, Example 2-334]",26
20,"COCC(C)CN(C)S(=O)(=O)NC(=O)c1coc(Nc2cc(C(F)(F)F)ccc2C)n1 (stereo not drawn) [US20230399319, Example 2-296]",81
21,"CC(C)c1ccc(C(F)(F)F)cc1Nc1nc(C(=O)NS(=O)(=O)N2CCOCC2)co1 [US20230399319, Example 2-026]",< 30

row,Structure (SMILES),IC50 [nM]
1,"Cc1ccc(C(F)(F)F)cc1Nc1nc(C(=O)NS(=O)(=O)N2CCCC(C#N)(C(=O)N(C)C)CC2)co1 (stereo not drawn) [US20230399319, Example 2-260]",41
2,"Cc1ccc(C(F)(F)F)cc1Nc1nc(C(=O)NS(=O)(=O)N2CCOC3(COC3)C2)co1 [US20230399319, Example 2-017]",83
3,"Cc1ccc(C(F)(F)F)cc1Nc1nc(C(=O)NS(=O)(=O)N(C)CC2CCCCC2)co1 [US20230399319, Example 2-206]",150
4,"Cc1cc(F)c(C(C)C)cc1Nc1nc(C(=O)NS(=O)(=O)N2CCOCC(C)(O)C2)co1 (stereo not drawn) [US20230399319, Example 2-351]",22
5,"CCCCC1(C#N)CCCN(S(=O)(=O)NC(=O)c2coc(Nc3cc(C(F)(F)F)ccc3C)n2)CC1 (stereo not drawn) [US20230399319, Example 2-249]",30
6,"Cc1ccc(C(F)(F)F)cc1Nc1nc(C(=O)NS(=O)(=O)N2CCC(C)(C)C2)co1 [US20230399319, Example 2-020]",100
7,"CC(C)c1ccc(C(F)(F)F)cc1Nc1ncc(C(=O)NS(=O)(=O)N2CCCOCC2)o1 [US20230399319, Example 2-135]",44
8,"Cc1ccc(C(F)(F)F)cc1Nc1nc(C(=O)NS(=O)(=O)N2CCC[C@H]2C(=O)N(C)C)co1 [US20230399319, Example 2-079]",280
9,"Cc1ccc(C(F)(F)F)cc1Nc1nc(C(=O)NS(=O)(=O)N(C)CC(=O)N(C)C)co1 [US20230399319, Example 2-110]",340
10,"Cc1ccc(C(F)(F)F)cc1Nc1nc(C(=O)NS(=O)(=O)N2CCC(F)(F)C2)co1 [US20230399319, Example 2-021]",90
11,"Cc1ccc(C(F)(F)F)cc1Nc1nc(C(=O)NS(=O)(=O)N2CCCC(S(=O)(=O)C(C)C)CC2)co1 (stereo not drawn) [US20230399319, Example 2-317]",27
12,"CCOC[C@@H]1CCCN1S(=O)(=O)NC(=O)c1coc(Nc2cc(C)ccc2C)n1 [US20230399319, Example 2-314]",210
13,"CCOCC1CCN(S(=O)(=O)NC(=O)c2coc(Nc3cc(C(C)C)c(F)cc3C)n2)CCO1 (stereo not drawn) [US20230399319, Example 2-337]",13
14,"Cc1noc(C2(C)CCN(S(=O)(=O)NC(=O)c3coc(Nc4cc(C(F)(F)F)ccc4C)n3)CC2)n1 [US20230399319, Example 2-285]",170
15,"COC[C@@H]1CCCN1S(=O)(=O)NC(=O)c1coc(Nc2cc(C(F)(F)F)ccc2C)n1 [US20230399319, Example 2-038]",< 30
16,"Cc1ccc(C(F)(F)F)cc1Nc1nc(C(=O)NS(=O)(=O)N2C[C@H]3COC[C@@H]3C2)co1 [US20230399319, Example 2-201]",320
17,"Cc1ccc(C(F)(F)F)cc1Nc1nc(C(=O)NS(=O)(=O)N2CCC2C)co1 (stereo not drawn) [US20230399319, Example 2-078]",100
18,"Cc1ccc(C(F)(F)F)cc1Nc1nc(C(=O)NS(=O)(=O)N2CCN(c3ncccn3)CC2)co1 [US20230399319, Example 2-265]",1100
19,"Cc1cc(F)c(C(C)C)cc1Nc1nc(C(=O)NS(=O)(=O)N2CCOC(CO)CC2)co1 (stereo not drawn) [US20230399319, Example 2-348]",28
20,"COCC1CCN(S(=O)(=O)NC(=O)c2coc(Nc3cc(C(F)(F)F)ccc3C)n2)C1 (stereo not drawn) [US20230399319, Example 2-307]",69
21,"Cc1ccc(C(F)(F)F)cc1Nc1nc(C(=O)NS(=O)(=O)N(C)Cc2cccnc2)co1 [US20230399319, Example 2-134]",79
